Data from patent US20070202503A1, “Pharmaceutical Composition Of (+)-Erythro-Mefloquine And Its Use” (priority 2004, published 2007).

Tests used:
[1] = Adverse events in clinical study on a background of methotrexate therapy; type: in vivo, patients; details: combination of (+)-erythro-mefloquine and methotrexate
Text: The formulations were used on a background of methotrexate therapy.
This is shown in FIG. 2, a plot of TMD (mean score) against time (days); ♦ represents placebo, ▴ represents A, ▪ represents B and ★ represents C.

[2] = tested on: human neutrophil; details: cited from earlier work

| SMILES | Adverse events compared with methotrexate alone [1] | effect on human neutrophil degranulation [2] |
| --- | --- | --- |
| O[C@H](c1cc(C(F)(F)F)nc2c(C(F)(F)F)cccc12)[C@@H]1CCCCN1 [(+)-erythro-mefloquine] | lower adverse events than methotrexate alone | – |
| OC(c1cc(C(F)(F)F)nc2c(C(F)(F)F)cccc12)C1CCCCN1 (racemic) [Racemic mefloquine, mefloquine] | – | stimulates human neutrophil degranulation |
